Among the data in patent publication US11286268B1, “EIF4E-inhibiting compounds and methods” (EFFECTOR THERAPEUTICS, INC., priority 2019, dated 2022) are IC50 values, retold here.

Structures are written as SMILES. Where two headings read alike, the source gives them in different places.

For the test, the target named is recombinant eIF4E (Homo sapiens (Human), UniProt P06730). As to the kind of experiment: Fluorescence polarization competition assay for eIF4E binding potency. The method, boiled down:
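FP readout; IC50 fit from 8-point, 3-fold series. 75 nM eIF4E + 20 nM ATTO-550-labelled m7GDP probe, Tris pH 7.5/NaCl/DTT/Tween buffer, 1% DMSO final. 30 min RT equilibration, light-protected.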
On the technique in general: Polarisation of emitted light reports the rotation of a fluorescent probe.

The mark [1] stands for this setting: inhibition of eIF4E/EDA-m7GDP-ATTO-550 binding, calculated IC50 values, Table 4B, read-out: IC50.
Setting [2] is: fluorescence polarization competition, 75 nM recombinant eIF4E, 20 nM EDA-m7GDP-ATTO-550, IC50 class, read-out: elF4E FP.
The mark [3] stands for this setting: inhibition of eIF4E/EDA-m7GDP-ATTO-550 binding by 50%, Table 4B calculated values, read-out: IC50.

Chain of recombinant eIF4E (P06730 whole entry): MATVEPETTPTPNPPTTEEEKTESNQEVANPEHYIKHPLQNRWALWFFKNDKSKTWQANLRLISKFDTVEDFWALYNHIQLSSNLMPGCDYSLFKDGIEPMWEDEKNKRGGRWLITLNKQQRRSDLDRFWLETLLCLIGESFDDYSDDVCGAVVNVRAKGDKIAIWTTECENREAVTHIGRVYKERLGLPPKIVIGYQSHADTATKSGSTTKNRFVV

As for `Cc1nc(N2CC3(CN(C)C3)C2)c(C#N)c2c(=O)n(CCOc3ccc(Cl)cc3-c3ccnc4c(C(=O)O)csc34)c(C)nc12` [compound 1265], under setting [1], the IC50 was 11.5 nM.

Turning to `Cc1nc2cnc(N3CCN(C)CC3)c(C#N)c2c(=O)n1CCOc1ccc(Cl)cc1-c1ccnc2ccsc12` [compound 1257], under setting [1], the IC50 was 52.5 nM.

Turning to `Cc1nc2cnc(N3CC(N4CC(F)(F)C4)C3)c(C#N)c2c(=O)n1CCOc1ccc(Cl)cc1-c1ccnc2c(C(=O)O)csc12` [compound 1341], under setting [1], the IC50 is 21.5 nM.

As to `Cc1nc2cc(C(F)(F)Cl)cc(C#N)c2c(=O)n1CCOc1ccc(Cl)cc1-c1ccnc2c(C(=O)O)csc12` [compound 264], the IC50 runs as follows: under setting [2], less than 50 nM; under setting [3], 24.6 nM.

For `Cc1ccc(-c2cc(Cl)ccc2OCCn2c(C)nc3cc(C(F)(F)F)c(N4CCN(C)CC4)c(C#N)c3c2=O)c2scc(C(=O)O)c12` [compound 1218], the IC50 is less than 50 nM under setting [2] and 13.1 nM under setting [1].

Regarding `Cc1nc2cnc(N(C)C3CCN([C@H]4C[C@H](F)C4)CC3)c(C#N)c2c(=O)n1CC#Cc1ccc(Cl)cc1-c1ccnc2c(C(=O)NS(=O)(=O)c3ccncc3)csc12` [compound 1792], under setting [1], the IC50 was 9.24 nM.

Turning to `Cc1cc(-c2cc(Cl)ccc2OCCn2c(C)nc3c(C)nc(-c4cccc(Cl)c4)c(C#N)c3c2=O)c2scc(C(=O)O)c2n1` [compound 481], the IC50 is less than 50 nM under setting [2] and 10.5 nM under setting [3].

In the case of `O=C(O)c1cccc(-c2cc(Cl)ccc2OCCn2ccc3ncccc3c2=O)c1` [compound 10], the IC50 was greater than 1000 nM under setting [2] and 6510 nM under setting [3].

As for `Cc1nc2cnc(N(C)C3CCN(C4CC(F)(F)C4)CC3)c(C#N)c2c(=O)n1CC#Cc1ccc(Cl)cc1-c1ccnc2c(C(=O)NS(=O)(=O)CC(F)F)csc12` [compound 1819], the IC50 under setting [1] is 4.4 nM.

`Cc1nc2cccc(C#N)c2c(=O)n1CCOc1ccc(Cl)cc1-c1cccc(C(=O)O)c1` [compound 1147]: the IC50 by setting is: under setting [2], less than 50 nM; under setting [3], 44.6 nM.

For the compound `Cc1nc2cnc(N(C)C3CCN(CC(F)(F)F)CC3)c(C#N)c2c(=O)n1CC#Cc1ccc(Cl)cc1-c1ccnc2c(C(=O)O)csc12` [compound 1140], the IC50 is less than 50 nM under setting [2] and 6.14 nM under setting [3].

With `Cc1cc(-c2cc(Cl)ccc2OCCn2c(C)nc3cc(C(F)(F)F)c(N4CCN(C)CC4)c(C#N)c3c2=O)c2scc(C(O)C(F)(F)F)c2n1` (centres unmarked) [compound 1080], the IC50 runs as follows: under setting [2], 50 to 1000 nM; under setting [3], 105 nM.

With `Cc1c(F)c2cc(C(F)(F)F)cc(C#N)c2c(=O)n1CCOc1ccc(Cl)cc1-c1ccnc2c(C(=O)O)csc12` [compound 262], the IC50 under setting [2] is less than 50 nM.

In the case of `CNc1nc2c(F)ccc(CCOc3ccc(Cl)cc3-c3cccc(C(=O)O)c3)c2c(=O)[nH]1` [compound 171], the IC50 is 50 to 1000 nM under setting [2] and 194 nM under setting [3].

Consider `Cc1nc2cnc(N3C[C@H]4CN(CC(F)F)C[C@H]4C3)c(C#N)c2c(=O)n1CCOc1ccc(Cl)cc1-c1ccnc2c(C(=O)O)csc12` [compound 1478], for which the IC50 under setting [1] was 13 nM.

Consider `Cc1cc(-c2cc(Cl)ccc2OCCn2c(C)nc3cc(C(F)F)c(N(C)C)c(C#N)c3c2=O)c2scc(C(=O)O)c2n1` [439a], for which the IC50 under setting [3] is 2.87 nM.

In the case of `Cc1nc2cc(Cl)c(Cl)c(C#N)c2c(=O)n1CC#Cc1ccc(Cl)cc1-c1ccnc2c(C(=O)O)csc12` [compound 257], the IC50 was 50 to 1000 nM under setting [2] and 69.2 nM under setting [3].

For `Cc1cc(-c2cc(Cl)ccc2C#CCn2c(C)nc3cncc(C#N)c3c2=O)c2scc(C(=O)O)c2n1` [compound 601], the IC50 is, setting by setting: under setting [2], 50 to 1000 nM; under setting [3], 52 nM.

In the case of `Cc1cc(-c2cc(Cl)ccc2OCCn2c(C)nc3c(F)cc(C(F)F)c(C#N)c3c2=O)c2scc(C(=O)NC(=O)N(C)C)c2n1` [compound 594], the IC50 was greater than 1000 nM under setting [2] and 1350 nM under setting [3].

On to `Cc1cc(-c2cc(Cl)ccc2OCCn2c(C)nc3cc(C(F)(F)F)c(CN4CCSCC4)c(C#N)c3c2=O)c2scc(C(=O)O)c2n1` [compound 1376], for which the IC50 under setting [1] was 13.6 nM.

As for `Cc1nc2cc(C(F)(F)F)cc(C(F)(F)F)c2c(=O)n1CCOc1ccc(Cl)cc1-c1ccnc2c(C(=O)O)csc12` [compound 219], the IC50 reads like this: under setting [2], 50 to 1000 nM; under setting [3], 109 nM.

In the case of `Cc1nc2cnc(N(C)C3CCN(CC(F)(F)F)CC3)c(C#N)c2c(=O)n1CC#Cc1ccc(Cl)cc1-c1ccnc2c(C(=O)NS(=O)(=O)CC#N)csc12` [compound 1670], under setting [1], the IC50 was 5.68 nM.

Regarding `Cc1cc2c(=O)n(CCOc3ccc(Cl)cc3-c3cccc(C(=O)O)c3)cnc2cn1` [compound 138], the IC50 under setting [2] fell in the range of 50 to 1000 nM and the IC50 under setting [3] is 279 nM.

As for `Cc1nc2cnc(N3CCN(C)CC3)c(C#N)c2c(=O)n1CC#Cc1ccc(Cl)cc1-c1ccnc2c(C(=O)O)csc12` [compound 842], the IC50 is less than 50 nM under setting [2] and 20.9 nM under setting [3].

Turning to `Cc1cc(-c2cc(Cl)ccc2OCCn2c(C)nc3cnc(C4CC4)c(C#N)c3c2=O)c2scc(C(=O)O)c2c1C` [compound 771], the IC50 under setting [2] was less than 50 nM and the IC50 under setting [3] was 12.8 nM.

For `Cc1cc(-c2cc(Cl)ccc2OCCn2c(C)nc3nc(C(F)(F)F)c(C)nc3c2=O)c2scc(C(=O)O)c2n1` [compound 760], the IC50 by setting is: under setting [2], less than 50 nM; under setting [3], 6.44 nM.

On to `Cc1nc2cc(C(F)(F)F)c(N3CCN(C)CC3)c(C#N)c2c(=O)n1CCOc1ccc(Cl)cc1-c1ccnc2c(Cl)csc12` [compound 1247], for which the IC50 runs as follows: under setting [2], less than 50 nM; under setting [1], 35.5 nM.

In the case of `Cc1nc2cc(C(F)(F)F)c(CN3CCCCC3)c(C#N)c2c(=O)n1CCOc1ccc(Cl)cc1-c1ccnc2c(C(=O)O)csc12` [compound 528], the IC50 was less than 50 nM under setting [2] and 27.1 nM under setting [3].

For `Cc1cc(-c2c(F)cc3nc(C)n(CCOc4ccc(Cl)cc4-c4cc(C)nc5c(C(=O)O)csc45)c(=O)c3c2C#N)cc(C)n1` [compound 932], the IC50 is less than 50 nM under setting [2] and 17.8 nM under setting [3].

As to `Cc1nc2cnc(N(C)C3CCN(CC(C)(F)F)CC3)c(C#N)c2c(=O)n1CC#Cc1ccc(Cl)cc1-c1ccnc2c(C(=O)NS(=O)(=O)CC(F)F)csc12` [compound 1105], the IC50 under setting [2] was less than 50 nM and the IC50 under setting [3] is 21.7 nM.

Take `Cc1cc(-c2cc(CN3CCN(C)CC3)ccc2OCCn2c(C)nc3cc(F)c(CN4CCN(C)CC4)c(C#N)c3c2=O)c2scc(C(=O)O)c2n1` [compound 2027]: under setting [1], the IC50 is greater than 1000 nM.

As for `Cc1cc(F)cc(-c2c(C(F)(F)F)cc3nc(C)n(CCOc4ccc(Cl)cc4-c4cc(C)nc5c(C(=O)O)csc45)c(=O)c3c2C#N)n1` [compound 684], the IC50 is less than 50 nM under setting [2] and 15 nM under setting [3].

Regarding `Cc1nc2cc(C(F)(F)F)c(N3CCN(CC(F)(F)F)CC3)c(C#N)c2c(=O)n1CCOc1ccc(Cl)cc1-c1ccnc2c(C(=O)O)csc12` [compound 640], the IC50 is, setting by setting: under setting [2], less than 50 nM; under setting [3], 24 nM.

Regarding `Cc1nc2cnc(N(C)C3COC3)c(C#N)c2c(=O)n1CC#Cc1ccc(Cl)cc1-c1ccnc2c(C(=O)O)csc12` [compound 1534], the IC50 under setting [1] was 15.8 nM.

For the compound `O=C(O)c1csc2c(-c3cc(Cl)ccc3OCCn3c(=O)c4ccccc4c4cnncc43)ccnc12` [compound 658], the IC50 is greater than 1000 nM under setting [2] and 1290 nM under setting [3].

On to `Cc1nc2cnc(N(C)C3CCN(CC(F)(F)C4CC(F)(F)C4)CC3)c(C#N)c2c(=O)n1CC#Cc1ccc(Cl)cc1-c1ccnc2c(C(=O)O)csc12` [compound 1582], for which, under setting [1], the IC50 was 19.2 nM.

Regarding `CCc1ncc2nc(C)n(CCOc3ccc(Cl)cc3-c3ccnc4c(C(=O)O)csc34)c(=O)c2c1C#N` [compound 813], the IC50 was less than 50 nM under setting [2] and 4.04 nM under setting [3].

With `Cc1nc2cc(C(F)(F)F)cc(C#N)c2c(=O)n1CCOc1ccccc1-c1ccnc2c(C(=O)O)csc12` [compound 227], the IC50 by setting is: under setting [2], 50 to 1000 nM; under setting [3], 507 nM.

In the case of `Cc1cc(-c2cc(Cl)ccc2OCCn2c(C)nc3cnc(C#N)cc3c2=O)c2scc(C(=O)O)c2n1` [compound 596], the IC50 is, setting by setting: under setting [2], less than 50 nM; under setting [3], 37.7 nM.

As to `N#Cc1cc2c(=O)n(CCOc3ccc(Cl)cc3-c3cc(C(=O)O)c4ccccc4n3)cnc2cn1` [compound 99], the IC50 runs as follows: under setting [2], greater than 1000 nM; under setting [3], 3420 nM.

Regarding `Cc1nc2cnc(N(C)C3[C@@H]4CC[C@H]3CN(CC(C)(F)F)C4)c(C#N)c2c(=O)n1CC#Cc1ccc(Cl)cc1-c1ccnc2c(C(=O)O)csc12` (some centres unmarked) [compound 1575], the IC50 under setting [1] was 14.7 nM.

For `Cc1cc(-c2cc(Cl)ccc2OCCn2c(C)nc3cc(C(F)(F)F)c(C4CC4)c(C#N)c3c2=O)c2scc(C(=O)O)c2n1` [compound 1049], the IC50 by setting is: under setting [2], less than 50 nM; under setting [3], 9.35 nM.

Regarding `CCc1cc(-c2cc(Cl)ccc2OCCn2c(C)nc3cc(C(F)(F)F)cc(C#N)c3c2=O)c2scc(C(=O)O)c2n1` [compound 330], the IC50 reads like this: under setting [2], less than 50 nM; under setting [3], 47.7 nM.

In the case of `CSc1c(-c2cc(Cl)ccc2OCCn2c(C)nc3cnc(C4CC4)c(C#N)c3c2=O)ccnc1C(=O)O` [compound 757], the IC50 is, setting by setting: under setting [2], 50 to 1000 nM; under setting [3], 137 nM.

For the compound `Cc1cc(-c2cc(Cl)ccc2OCCn2c(C)nc3cc(C(F)(F)F)c(N4CCN(C)C(C(F)(F)F)C4)c(C#N)c3c2=O)c2sc(C)c(C(=O)O)c2n1` (centres unmarked) [compound 1207], the IC50 is, setting by setting: under setting [2], 50 to 1000 nM; under setting [1], 121 nM.

Turning to `Cc1cnc(C)c(-c2c(C(F)(F)F)cc3nc(C)n(CCOc4ccc(Cl)cc4-c4cc(C)nc5c(C(=O)O)csc45)c(=O)c3c2C#N)n1` [compound 968], the IC50 under setting [2] was less than 50 nM and the IC50 under setting [3] was 8.95 nM.

With `COc1c(N)cc(-c2cc(Cl)ccc2OCCn2cnc3cnc(C#N)cc3c2=O)cc1C(=O)O` [compound 114], the IC50 reads like this: under setting [2], 50 to 1000 nM; under setting [3], 333 nM.
